The results in this text go back to article PMC5733478, “A Non-imaging High Throughput Approach to Chemical Library Screening at the Unmodified Adenosine-A3 Receptor in Living Cells” (Frontiers in Pharmacology, 2017).

Counter-ions that a name gives are not always drawn. Like-named read-outs stand apart in the source and are kept apart here.

In the assay the target is T1, human A3AR (Homo sapiens, UniProt P0DMS8).
T1 construct: expressed in transfected cells
T1 sequence (P0DMS8 1-318): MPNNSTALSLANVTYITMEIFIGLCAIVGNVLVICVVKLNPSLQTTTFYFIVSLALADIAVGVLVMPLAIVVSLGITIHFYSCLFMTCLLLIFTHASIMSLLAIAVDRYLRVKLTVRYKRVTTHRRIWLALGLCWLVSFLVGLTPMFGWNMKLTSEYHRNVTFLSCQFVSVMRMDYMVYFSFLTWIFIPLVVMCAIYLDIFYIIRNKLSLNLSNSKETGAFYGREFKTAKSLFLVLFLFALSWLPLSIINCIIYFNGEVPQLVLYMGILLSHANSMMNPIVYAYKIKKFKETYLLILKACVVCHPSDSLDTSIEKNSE
In words: LOPAC library primary screen: single concentration (10 μM) inhibition of 25 nM CA200645 binding, PHERAstar FS.

As for Ro 90-7501, the “% 25 nM CA200645 binding” value is reported as 72.1 ± 6.0%. The same measure, in the same setting: to `C[N+](C)(C)CCOP(=O)([O-])OP(=O)([O-])OC[C@H]1O[C@@H](n2ccc(N)nc2=O)[C@H](O)[C@@H]1O.[Na+]` belongs 102.5 ± 15.7%; to `CC(N)Cc1c[nH]c2ccc(OCc3cccs3)cc12` (stereo not shown) [BW 723C86], 102.2 ± 11.4%.

In the case of `Cl.c1ccc([C@H]2CN3CCSC3=N2)cc1` [(-)-Tetramisole hydrochloride], the “% 25 nM CA200645 binding” value was found to be 112.9 ± 6.8%.

As for `Cn1c(=O)c2[nH]c(C3CCCC3)nc2n(C)c1=O` [8-Cyclopentyl-1,3-dimethylxanthine], the “% 25 nM CA200645 binding” value turned out to be 96.1 ± 9.6%. Regarding `CN1CCN(CCCN2c3ccccc3Sc3ccc(Cl)cc32)CC1` [Prochlorperazine dimaleate], the “% 25 nM CA200645 binding” value came out at 90.4 ± 18.3%. For `Br.Cc1o[nH]c(=O)c1CC(N)C(=O)O` (racemic) [(±)-AMPA hydrobromide], the “% 25 nM CA200645 binding” value came to 96.2 ± 10.6%.

For the compound `COC(=O)C1=CO[C@@H](O)[C@@H]2C(CO)=CC[C@H]12` [Genipin], the “% 25 nM CA200645 binding” value stood at 96.3 ± 9.0%. For `OCCN(CCO)c1nc(N2CCCCC2)c2nc(N(CCO)CCO)nc(N3CCCCC3)c2n1` [Dipyridamole], the “% 25 nM CA200645 binding” value came out at 78.8 ± 14.8%. Regarding `CN1C[C@H](C(=O)N[C@]2(C)O[C@@]3(O)[C@@H]4CCCN4C(=O)[C@H](Cc4ccccc4)N3C2=O)C[C@@H]2c3cccc4[nH]cc(c34)C[C@H]21` [Dihydroergotamine methanesulfonate], the “% 25 nM CA200645 binding” value came out at 99.2 ± 11.1%. Still for that read-out and setting: then `Cl.Cn1c(CCCC(=O)O)nc2cc(N(CCCl)CCCl)ccc21` [Bendamustine hydrochloride], with 97.6 ± 4.1%. Turning to `CN(C)C(N)=NCCC[C@H](N)C(=O)O.Cl` [N^G,N^G-Dimethylarginine hydrochloride], the “% 25 nM CA200645 binding” value is 101.2 ± 10.7%. L-Methionine sulfoximine: the “% 25 nM CA200645 binding” value is given as 107.1 ± 5.4%. With `O=P1(N(CCCl)CCCl)NCCCO1` (stereo not shown) [Cyclophosphamide monohydrate], the “% 25 nM CA200645 binding” value is 79.2 ± 18.9%. On to `CCCCCN(C)CCC(O)(P(=O)([O-])O)P(=O)(O)O.[Na+]` [Ibandronate sodium], for which the “% 25 nM CA200645 binding” value is reported as 95.5 ± 10.4%. As to `CS(=O)(=O)Nc1ccc([N+](=O)[O-])cc1Oc1ccccc1` [Nimesulide], the “% 25 nM CA200645 binding” value worked out at 114.0 ± 22.1%. The same measure, in the same setting: then `CC(=O)[C@H]1CC[C@H]2[C@@H]3CC=C4C[C@@H](OS(=O)(=O)[O-])CC[C@]4(C)[C@H]3CC[C@]12C.[Na+]` [Pregnenolone sulfate sodium], with 100.9 ± 23.1%; and `CC(=O)NNC(=O)N1Cc2ccccc2Oc2ccc(Cl)cc21` [SC 19220], with 105.0 ± 9.4%. As to `Nc1ccc(CCNc2ncnc3c2ncn3[C@@H]2O[C@H](CO)[C@@H](O)[C@H]2O)cc1` [APNEA, reference compound], the “% Total CA200645 binding” value (% of 25 nM CA200645 binding in the presence of 10 μM compound, LOPAC full screen, A3AR CHO cells) was determined as 41.0 ± 7.2%. For the compound `NC1(C(=O)O)CCc2cc(C(=O)O)ccc21` (stereo not shown) [AIDA], the “% 25 nM CA200645 binding” value was 99.4 ± 5.4%. Regarding `CC(=O)c1ccc2c(c1)N(CCCN(C)C)c1ccccc1S2` [Acepromazine maleate], the “% 25 nM CA200645 binding” value was found to be 90.7 ± 4.5%. As for `N[C@@H](C(=O)N[C@@H]1C(=O)N2C(C(=O)O)=C(Cl)CS[C@H]12)c1ccccc1` [Cefaclor], the “% 25 nM CA200645 binding” value was found to be 79.3 ± 20.7%. With `CSc1nc(N)c2ncn([C@@H]3O[C@H](COP(=O)([O-])OP(=O)([O-])[O-])[C@@H](O)[C@H]3O)c2n1.O.[Na+].[Na+].[Na+]`, the “% 25 nM CA200645 binding” value turned out to be 100.3 ± 5.3%. `COc1ccccc1N1CCN(CCCNc2c(C)c(=O)n(C)c(=O)n2C)CC1` [Urapidil, 5-Methyl-]: the “% 25 nM CA200645 binding” value was determined as 83.5 ± 22.8%. `O=c1cc(O)cc(/C=C/c2ccc(O)c(O)c2)o1` [Hispidin]: the “% 25 nM CA200645 binding” value was determined as 77.8 ± 19.6%.

As for `CN1C(C(=O)Nc2ccccn2)=C(O)c2ccccc2S1(=O)=O` [Piroxicam], the “% 25 nM CA200645 binding” value is given as 101.0 ± 12.2%. With `C[C@@]1(C2CCCC2)Cc2cc(OCC(=O)O)c(Cl)c(Cl)c2C1=O` [R(+)-IAA-94], the “% 25 nM CA200645 binding” value is 95.5 ± 13.0%. Turning to `CSC(=N)N.CSC(=N)N.O=S(=O)(O)O` [S-Methylisothiourea hemisulfate], the “% 25 nM CA200645 binding” value turned out to be 112.2 ± 21.2%. As to `Cc1nc2n(c(=O)c1CCN1CCC(c3noc4cc(F)ccc34)CC1)CCCC2O` (stereo not shown) [Paliperidone], the “% 25 nM CA200645 binding” value stood at 94.9 ± 1.6%. Still for that read-out and setting: then `CC(C)NCC(O)COc1cccc2[nH]ccc12` (stereo not shown) [Pindolol], with 84.7 ± 11.8%; and `Cc1cc(NC(=O)Nc2ccc3c(ccn3C)c2)sn1` [SB 204741], with 88.1 ± 14.4%. In the case of `CC[C@H](CO)Nc1nc(NCc2ccccc2)c2ncn(C(C)C)c2n1` [Roscovitine], the “% 25 nM CA200645 binding” value is listed as 45.3 ± 8.6%. Same read-out and setting: to `COc1ccccc1N1CCN(CCCNc2cc(=O)n(C)c(=O)n2C)CC1` [Urapidil hydrochloride] belongs 97.1 ± 1.5%; to `Cc1ccc(S(=O)(=O)/C=C/C#N)cc1` [Bay 11-7082], 104.6 ± 21.3%; to `CC12CC3CC(C)(C1)CC(N)(C3)C2` [Memantine hydrochloride], 109.9 ± 10.5%. As for `C[N+]1(C)CCc2cc3c(cc2[C@H]1[C@@H]1OC(=O)c2c1ccc1c2OCO1)OCO3.[Br-]` [(-)-Bicuculline methbromide, 1(S), 9(R)], the “% 25 nM CA200645 binding” value came out at 67.4 ± 5.9%. Same read-out and setting: to `CN1CCc2cc(Cl)c(O)cc2[C@@H](c2ccccc2)C1.Cl` [R(+)-SCH-23390 hydrochloride] belongs 96.2 ± 12.3%. With `NNC(=O)c1ccc(O)cc1` [4-Hydroxybenzhydrazide], the “% 25 nM CA200645 binding” value turned out to be 105.3 ± 8.4%. As to `CCNC(=O)[C@H]1O[C@@H](n2cnc3c(N)nc(NCCc4ccc(CCC(=O)O)cc4)nc32)[C@H](O)[C@@H]1O` [CGS 21680, reference compound], the “hit in LOPAC primary screen (inhibited the binding of CA200645 by >40%)” value was “not identified as hits”.

On to `Cn1c(=O)c2[nH]c(-c3ccc(S(=O)(=O)O)cc3)nc2n(C)c1=O` [8-(p-Sulfophenyl)theophylline], for which the “% 25 nM CA200645 binding” value amounted to 97.2 ± 13.7%. As to `CC(C)[C@@H]1CC[C@@H](C)C[C@@H]1P(=O)(c1ccccc1)c1ccccc1` [DPO-1], the “% 25 nM CA200645 binding” value is reported as 89.1 ± 3.8%. Turning to `O=c1c(O)c(-c2ccc(O)c(O)c2)oc2cc(O)cc(O)c12` [Quercetin dihydrate], the “% 25 nM CA200645 binding” value (% of control wells (1% DMSO and 25 nM CA200645), compounds at 10 µM, […], mean ± SD, three experiments in duplicate) came to 25.2 ± 6.9%.

Take `O=C1OC(=O)[C@H]2[C@@H]1[C@@H]1CC[C@H]2O1` [Norcantharidin]: the “% 25 nM CA200645 binding” value is listed as 108.5 ± 19.2%. On the same count and under the same terms, to `OC[C@H]1NC[C@H](O)[C@@H](O)[C@@H]1O` [1-Deoxynojirimycin hydrochloride] belongs 98.5 ± 11.6%; to `CCCCCCCC/C=C\CCCCCCCC(=O)O` [Oleic Acid], 98.9 ± 11.8%. `COc1ccc2c(c1)c(CC(=O)O)c(C)n2C(=O)c1ccc(Cl)cc1` [Indomethacin]: the “% 25 nM CA200645 binding” value is on record as 72.9 ± 18.3%. For `O=C(O)/C=C\C(=O)O.O=C1/C(=C/c2ccccc2)C[C@@]2(O)[C@H]3Cc4ccc(O)c5c4[C@@]2(CCN3CC2CC2)[C@H]1O5` [BNTX maleate salt hydrate], the “% 25 nM CA200645 binding” value is given as 109.9 ± 5.7%. Turning to `C#CCN[C@H](C)Cc1ccccc1.Cl` [R-(-)-Desmethyldeprenyl hydrochloride], the “% 25 nM CA200645 binding” value was 101.0 ± 11.7%.

Turning to `C[C@]12C[C@H](O)[C@H]3[C@@H](CCC4=CC(=O)CC[C@@]43C)[C@@H]1CC[C@@H]2C(=O)CO` [Corticosterone], the “% 25 nM CA200645 binding” value is 99.8 ± 5.3%. Consider `O=C(O)CCC/C=C\C[C@@H]1[C@@H](/C=C/[C@H](O)C2Cc3ccccc3C2)[C@@H](F)C[C@@H]1O` [AL-8810], for which the “% 25 nM CA200645 binding” value is 75.0 ± 17.3%.

As to `O=C(Nc1ccccc1)c1cc([N+](=O)[O-])ccc1Cl` [GW9662], the “% 25 nM CA200645 binding” value is on record as 114.5 ± 11.5%. Turning to `N#CC(C#N)=Cc1ccc(O)c(O)c1` [Tyrphostin 23], the “% 25 nM CA200645 binding” value (% of control wells (1% DMSO and 25 nM CA200645), compounds at 10 µM, whole live cells expressing the A3AR, mean ± SD, three experiments in duplicate) was found to be 84.9 ± 6.4%. As to `CC(=O)[C@H]1CC[C@H]2[C@@H]3CC[C@H]4C[C@H](O)CC[C@]4(C)[C@H]3CC[C@]12C` [5alpha-Pregnan-3alpha-ol-20-one], the “% 25 nM CA200645 binding” value amounted to 85.2 ± 19.4%.

As to `Cl.O=C(Cc1ccc(Cl)c(Cl)c1)N1CCCCC1CN1CCCC1` (stereo not shown) [BRL 52537 hydrochloride], the “% 25 nM CA200645 binding” value was 112.4 ± 4.2%. Take `CN(C)CCC(c1ccccc1)c1ccccn1` (stereo not shown) [Pheniramine maleate]: the “% 25 nM CA200645 binding” value worked out at 91.5 ± 14.9%.

`Oc1ccc2ccccc2c1SSc1c(O)ccc2ccccc12` [IPA-3]: the “% 25 nM CA200645 binding” value is recorded as 63.1 ± 15.2%.

`CCc1ccc2c(-c3cccc(Cl)c3)nc(=O)n(CC)c2n1` [YM 976]: the “% 25 nM CA200645 binding” value is listed as 93.5 ± 3.0%. Consider `C=CCN1CC[C@]23c4c5ccc(O)c4O[C@H]2C(=O)CC[C@@]3(O)[C@H]1C5` [Naloxone hydrochloride], for which the “% 25 nM CA200645 binding” value is 114.3 ± 14.2%. As for `COc1ccc(CN(CCN(C)C)c2ccccn2)cc1` [Pyrilamine maleate], the “% 25 nM CA200645 binding” value came to 84.6 ± 34.1%. In the case of `C=CCN1C[C@H](C)N([C@H](c2ccc(C(=O)N(CC)CC)cc2)c2cccc(OC)c2)C[C@H]1C` [SNC80], the “% 25 nM CA200645 binding” value stood at 94.8 ± 9.3%. `Nc1nc2ccc(Cl)cc2n2c(-c3ccccc3)nnc12` [CP-66713]: the “% 25 nM CA200645 binding” value was 93.9 ± 10.2%.
